Data set [1] deals with macrophage ABCA1-deficient mice exposed to cigarette smoke for 10 days. The data set is described as follows: Acute 10 day cigarette smoke exposure of macrophage ABCA1-deficient mice with treatment. The note with it: 25 mg/kg IP, 10 days smoke exposure. It counts as in vivo, mouse. The procedure: In order to determine if the mechanism identified in vitro contributed to changes in smoke induced lung inflammation in vivo, smoke studies were performed in vivo. […] Through investigation of the smoke-induced regulation of ABCA1, the present disclosure identifies unique pathways that can be targeted to prevent smoking-related emphysema and the progression of lung destruction.

The subject of data set [2] is human peripheral blood monocytes differentiated to macrophages, 5% CSE. In words: Human monocyte-derived macrophages treated with 5% CSE with or without LXR agonist. The conditions noted are these: LXR agonist 3 μM. It counts as cell-based. The source says: FIG. 21. Downregulation of ABC transporters in Chronic Obstructive Pulmonary Disease (COPD) as potential therapeutic target with LXR agonist. (A.) (Left) mRNA expression analysis of ABCA1 G1 in lungs of patients with moderate (after lung volume reduction) and severe COPD (after lung transplantation) and (Right) mRNA expression analysis of ABCA1/G1 in lungs of patients with moderate and severe COPD (n=7). (B.) mRNA analysis of ABCA1, ABCG1, MMP9, (C.) MMP-2 and 9 activity assayed by gelatin zymography in human peripheral blood monocytes differentiated to macrophages in vitro by 3 days treatment with M-CSF (10Ong/m1). After differentiation process human macrophages were treated with 5% CSE with or without LXR agonist (T0901317-Cayman) treatment in 3 μM concentration. β-Actin was used as a housekeeping gene control for RT-PCR. Values are presented as statistically significant when *p<0.05, **p<0.01, ***p<0.001 when compared to controls and #p<0.05 compared Co LXR treated human macrophages.
To prepare cigarette (CSE), the smoke from one cigarette (1.1 mg of nicotine, 15 mg of tar) was passed through 25 mls of phosphate buffered saline (PBS) (Mercer et al., 2004). The pH of the extracted solution was adjusted to 7.4 and then filtered (Mercer et al., 2004). CSE was added to the media at concentrations up to 5% (vol/vol) (Mercer et al., 2004).

Data set [3] is described as follows: In vivo bioavailability of LXR agonist in lung and serum (LC/MS/MS). The arrangement: species or system mouse. The procedure: FIG. 23. In vivo bioavailability of LXR agonist (T0901317) in the lung and serum after intraperitoneal (IP) and custom made diet administration. (A.) T0901317 LC/MS/MS Chromatogram showing no difference among standard and samples in the peak shape and retension time. (B.) Table representing levels of the administered drug in serum and lungs of AKR/J mice by IP (2 and 24 hours post drug administration) and in custom made diet (Research Diets Inc, 0.015% w/w). The result was normalized by using serum volume and lung tissue weight. No T0901317 was detected in control serum and lung.

Data set [4] concerns macrophage specific ABCA1 KO (ABCA1 Cre-LysM) macrophages treated with 5% CSE. The data set is described as follows: ABCA1 KO (ABCA1 Cre-LysM) mouse macrophages treated with 5% CSE with or without LXR agonist. Type of data set: cell-based. The procedure: FIG. 14. Effect of LXR dependent ABCA1 reexpression on cigarette smoke induced pro-inflammatory and MMP signaling pathways in macrophages. (A.) Western Blot analysis of JNK phosphorylation (oxidative stress activated MAP kinase), (B.) mRNA expression analysis of TLR4/Myd88 in mouse macrophages treated with 5% CSE with or without LXR agonist (T0901317-Cayman) in 3 μM concentration. (C-E.) mRNA expression analysis of inflammatory cytokines TNFα (C.), IL-1β (D.) and IL-10 (E.) mouse macrophages isolated from bone marrow of WT (ABCA1 fl/fl mice) and macrophage specific ABCA1 KO (ABCA1 Cre-LysM) treated with 5% CSE with or without LXR agonist (T0901317-Cayman) in 3 μM concentration. (F-H.) Analysis of MMP activation mouse macrophages isolated from bone marrow of WT (ABCA1 fl/fl mice) and macrophage specific ABCA1 KO (ABCA1 Cre-LysM) treated with 5% CSE with or without LXR agonist (T0901317-Cayman) in 3 μM concentration. MMP-9 and -13 mRNA expression (F.), MMP-9 mRNA expression with LXR agonist treatment, (H.) MMP-9 activity assayed by gelatin zymography. β-Actin was used as a housekeeping gene control for RT-PCR. Values are presented as statistically significant when *p<0.05, **p<0.01, ***p<0.001 when compared to controls and #p<0.05 compared to 5% CSE.
In these experiments both mouse peritoneal and mouse bone marrow derived macrophages (BMdM) were utilized. Mouse peritoneal macrophages were isolated from peritoneal cavities of 3% thioglycolate injected mice on the 5th day from injection. To compare expression of genes in vitro and in vivo peritoneal macrophages were isolated from mice exposed to room air and cigarette smoke. For in vitro analysis cells were seeded on culture plates for 24 h and then treated with CSE. For in vivo analysis cells were collected from peritoneal cavity and mRNA was directly isolated. […] The obtained cells were then counted (usually 100-150 million cells per mouse) and centrifuged for 5 min at 2600 rpm. […] Approximately after 7-10 days of plating the cells become fully differentiated into macrophages and were ready for subsequent experiments. […]

In the case of `O=S(=O)(c1ccccc1)N(CC(F)(F)F)c1ccc(C(O)(C(F)(F)F)C(F)(F)F)cc1` [T0901317, N-(2,2,2-trifluoroethyl)-N-[4-[2,2,2-trifluoro-1-hydroxy-1-(trifluoromethyl)ethyl]phenyl]-benzenesulfonamide], the “pulmonary inflammation (total cell counts in BAL)” value in data set [1] was “did not resolve”. In data set [2], the “ABC transporter levels (ABCA1, ABCG1 mRNA)” value is “restored”; the “CSE increased MMP-9 expression and activity” value was “inhibited”. In addition, in data set [3] (after IP administration, acute 10 day model), the “drug detected in the lungs” value is given as “detected”. The “drug detected in the lungs” value in data set [3] (chronic 5 months model (diet 0.015% w/w), text prints after IP administration) is “detected”. Besides, the “decrease in MMP-9 activity and expression, MMP-13 expression and TNFα expression” value in data set [4] (ABCA1 KO macrophages) was “not observed”. For the same compound, in data set [4] (ABCA1 macrophage knockout, LXR agonist 3 μM), the “reversal of induction of cytokines by 5% CSE” value was “not able to reverse”. In addition, the “reduction of mRNA and activity of MMP-9: dependence on ABCA1” value in data set [4] (WT versus ABCA1 KO macrophages, 5% CSE, LXR agonist 3 μM) was “only in the presence of the ABCA1 transporter”.

(Values after patent publication US20160310454A1, “LIVER X RECEPTOR AGONISTS IN THE TREATMENT OF EMPHYSEMA” (priority 2013, published 2016).)
